Assay results from patent publication US20040248918A1, “N-phenyl-2-pyrimidine-amine derivatives and process for the preparation thereof” (IL YANG PHARM. CO., LTD., priority 2003, published 2004).
Like-named read-outs stand apart in the source and are kept apart here.

Assays:
[1] = system: K562 cancer cell (CML cell line); assay: Growth inhibition of K562 cancer cell (MTT); format: cell-based; details: for IC50: K562, 2 days, MTT; for Improved activity versus Imatinib mesylate: K562
Procedure: In the present experiment, the inhibitory activity of the compound of formula (1) was determined against the growth of K562 cancer cell. First, the cells were allowed to stand in RPMI (Roswell Park Memorial Institute)-1640 medium containing 10% (v/v) fetal bovine serum in an incubator of 37° C. and 5% by volume of CO2. The cancer cells (1000 cells) were transferred to a 96-well plate, and the test compound was diluted. The plate was allowed to stand under the above mentioned conditions for 2 days. […] The supernatant was removed to leave the resulting crystal.

[2] = system: U937 cancer cell (monocyte like leukemia cell line); assay: Growth inhibition of U937 cancer cell (MTT); format: cell-based; details: for IC50: Homo sapiens, U-937
Procedure: (§1) In the present experiment, the inhibitory activity of the compound of formula (1) was determined against the growth of K562 cancer cell. First, the cells were allowed to stand in RPMI (Roswell Park Memorial Institute)-1640 medium containing 10% (v/v) fetal bovine serum in an incubator of 37° C. and 5% by volume of CO2. The cancer cells (1000 cells) were transferred to a 96-well plate, and the test compound was diluted. The plate was allowed to stand under the above mentioned conditions for 2 days. After this treatment, to the cells was added 0.2% MTT (3-[4,5-dimethylthiazol-2-yl]-2,5-diphenyltetrazolium bromide) solution, and the resulting mixture was allowed to stand under the constant temperature-condition for 4 hours. The supernatant was removed to leave the resulting crystal. DMSO was added to dissolve the crystal, and the absorbance of the solution was measured at 540 nm. IC50 value was calculated using a computer system according to the following formula: […]
In the present experiment, the inhibitory activity of the compound of formula (1) was determined against the growth of U937 cancer cell. The test was performed according to the same procedure as Experiment 1.

[3] = system: oral epithelial cancer cell (KB); assay: Growth inhibition of KB (MTT); format: cell-based; parameters: IC50 as fraction of that of Imatinib mesylate: unit not given beside the values; details: for IC50: Homo sapiens
Procedure: as §1
(§2) The test was performed according to the same procedure as Experiment 1.

[4] = system: hematologic malignancy cell (HL-60); assay: Growth inhibition of HL-60 (MTT); format: cell-based; parameters: IC50 as fraction of that of Imatinib mesylate: unit not given beside the values; details: for IC50: Homo sapiens
[5] = system: ovarian cancer cell (SK-OV-03); assay: Growth inhibition of SK-OV-03 (MTT); format: cell-based; parameters: IC50 as fraction of that of Imatinib mesylate: unit not given beside the values
Procedure: as §1, §2

[6] = system: breast cancer cell (MCF-7); assay: Growth inhibition of MCF-7 (MTT); format: cell-based; parameters: IC50 as fraction of that of Imatinib mesylate: unit not given beside the values; details: for IC50: Homo sapiens, MCF7
Procedure: as §1, §2

[7] = system: prostatic cancer cell (DU-145); assay: Growth inhibition of DU-145 (MTT); format: cell-based; parameters: IC50 as fraction of that of Imatinib mesylate: unit not given beside the values; details: for IC50: Homo sapiens
Procedure: as §1, §2

[8] = system: acute myelogenous leukemia cell (KG-1); assay: Growth inhibition of KG-1 (MTT); format: cell-based; details: for IC50: Homo sapiens
[9] = system: lymphoma cell (RPMI-6666); assay: Growth inhibition of RPMI-6666 (MTT); format: cell-based; details: for IC50: Homo sapiens
Procedure: as §1, §2

[10] = system: pancreatic cancer cell of PANC-1; assay: Growth inhibition of PANC-1 (MTT); format: cell-based; details: for IC50: Homo sapiens, read-out: IC50
[11] = system: pancreatic cancer cell of CAPAN-2; assay: Growth inhibition of CAPAN-2 (MTT); format: cell-based; details: for Improved activity versus 5-Fu / Improved activity versus cisplatin: CAPAN-2; for IC50: Homo sapiens, Capan-2, read-out: IC50
[12] = system: colon cancer cell of SNU-C1; assay: Growth inhibition of SNU-C1 (MTT); format: cell-based; details: for IC50: Homo sapiens, read-out: IC50
[13] = system: rectal cancer cell of CMT-93; assay: Growth inhibition of CMT-93 (MTT); format: cell-based; details: for IC50: CMT93, read-out: IC50
Procedure: as §1, §2

[14] = system: cervical cancer cell of HeLa229; assay: Growth inhibition of HeLa 229 (MTT); format: cell-based; details: for IC50: Homo sapiens, read-out: IC50
[15] = system: encephalophyma cell of A172; assay: Growth inhibition of A172 (MTT); format: cell-based; details: for IC50: Homo sapiens, A 172, read-out: IC50
Procedure: as §1, §2

[16] = system: bladder cancer cell of HT-1197; assay: Growth inhibition of HT-1197 (MTT); format: cell-based; details: for IC50: Homo sapiens, HT1197, read-out: IC50
Procedure: as §1, §2

[17] = Comparative pharmacokinetic test in white rats; format: in vivo, white rats (Sprague-Dawley); details: rat
Procedure: On the previous day to the test, white rats (Sprague-Dawley, 250˜280 g, male) were put under anesthesia by pentobarbital sodium (50 mg/kg, I.P.). Then, cannula (polyethylene tube; diameter: 0.58mm) was introduced into the rats via the carotid artery and jugular vein, and drawn out to the back. After the operation, the rats were fasted for 16 hours and used for the test. […] Blood was collected in 0, 0.5, 1, 1.5, 2, 2.5, 3, 3.5, 4, 4.5, 5, 6, 8, 10, 12, and 24 hours from the carotid artery. The samples for HPLC analysis were prepared using the collected blood according to the following procedure and were analyzed under the following conditions.
Blood was collected by an amount of 0.5 ml at each prearranged time and centrifuged at 15000 rpm for 7 minutes to separate […] of plasma. In order to remove proteins, MeOH was added in an amount of […], twice as much as the amount of plasma, and the mixture was shaken for 30 minutes. The mixture was centrifuged again at 15000 rpm for 5 minutes to give protein free supernatant, which was then analyzed by HPLC.
Flow rate: 1.0 ml/min, UV detection at 267 nm
Column: 4.6×150 mm, 5C18-AR-II, COSMOSIL
Eluent: Mixture of ion pair sample (420 ml) and MeOH (580 ml)
Ion pair sample: 7.5 g of 1-octanesulfonic acid was dissolved in 800 ml of water. The resulting mixture was adjusted to pH 2.5 using phosphoric acid and diluted with water to 1000 ml volume.
Here, the pharmacokinetic parameters are Tmax (time to reach the maximum blood concentration), Cmax (maximum blood concentration), AUC (area under the curve of time-blood concentration), and T1/2 (half time in blood), and the AUC was calculated under trapezoid rule (see Tables 6, 7 and FIGS. 1, 2).

[18] = Homo sapiens, K562, 48 h, read-out: IC50
[19] = male, Sprague-Dawley, plasma, po, 50 mg/kg, P.O.
[20] = male, Sprague-Dawley, plasma, iv, 50 mg/kg, I.V.

| Structure (SMILES) | IC50 [1, 18] [µg/mL] | IC50 [2] [µg/mL] | IC50 [3] [µg/mL] | IC50 [4] [µg/mL] | IC50 [5] [µg/mL] | IC50 [6] [µg/mL] | IC50 [7] [µg/mL] | IC50 [8] [µg/mL] | IC50 [9] [µg/mL] | Improved activity versus 5-Fu [10] [times] | IC50 [10] [µg/mL] | Improved activity versus 5-Fu [11] [times] | Improved activity versus cisplatin [11] | IC50 [11] [µg/mL] | Improved activity versus 5-Fu [12] [times] | Improved activity versus Imatinib mesylate [12] | Improved activity versus cisplatin [12] | IC50 [12] [µg/mL] | IC50 [13] [µg/mL] | IC50 [14] [µg/mL] | also measured |
| --- | --- | --- | --- | --- | --- | --- | --- | --- | --- | --- | --- | --- | --- | --- | --- | --- | --- | --- | --- | --- | --- |
| CS(=O)(=O)O.Cc1ccc(NC(=O)c2ccc(CNN3CCN(C)CC3)cc2)cc1Nc1nccc(-c2cccnc2)n1 [Example 4, 4-(4-methylpiperazin-1-ylaminomethyl)-N-[4-methyl-3-(4-(pyridin-3-yl)pyrimidin-2-yl)aminophenyl]benzamide methanesulfonate] | ≤ 0.1 | 0.9 | 35 | 27.8 | > 50 | > 50 | 41.3 | > 50 | 33.8 | 10 | 53.8 | 17 | 9 times | 56.3 | 9 | 3 times | 30 times | 10 | 8.39 | 48.5 | IC50 ([1]; methanesulfonate): <0.10 µg/mL; Improved activity versus Imatinib mesylate ([1]; listed as example 4, methanesulfonate): 5 times; Improved activity versus Imatinib mesylate ([1]; methanesulfonate): ≥ 5 times; Improved activity versus Imatinib mesylate [2]: 30 times; IC50 [15]: 39.3 µg/mL; IC50 [16]: 50.1 µg/mL; Cmax [17, 19]: 3160 ng/mL; Tmax [17, 19]: 2 h; AUC ([17]; male, Sprague-Dawley, plasma, po, 50 mg/kg, P.O., trapezoid rule): 23000 ng·h/mL; AUC relative to Imatinib mesylate ([17]; both per oral 100 mg/kg): about twice; Cmax relative to Imatinib mesylate ([17]; both per oral 100 mg/kg): about twice |
| CN1CCCN(Cc2ccc(C(=O)Nc3ccc(Nc4nccc(-c5cccnc5)n4)cc3)cc2)CC1.CS(=O)(=O)O [Example 10, 4-(4-methylhomopiperazin-1-ylmethyl)-N-[4-(4-(pyridin-3-yl)pyrimidin-2-yl)aminophenyl]benzamide methanesulfonate] | 3.85 | 7.3 | 8.99 | 4.28 | 25.5 | 6.96 | 5.51 | 3.31 | 2.12 | > 120 | 4.62 | > 20 | more than 10 times | 45.9 | > 80 | more than 25 times | more than 250 times | 1.2 | 4.04 | 5.5 | IC50 as fraction of that of Imatinib mesylate [3]: 1/5; IC50 as fraction of that of Imatinib mesylate [4]: 1/8; IC50 as fraction of that of Imatinib mesylate [5]: 1/2; IC50 as fraction of that of Imatinib mesylate [6]: 1/7; IC50 as fraction of that of Imatinib mesylate [7]: 1/2; IC50 as fraction of that of Imatinib mesylate [8]: 1/10; IC50 as fraction of that of Imatinib mesylate [9]: 1/15; Improved activity versus Imatinib mesylate [10]: more than 10 times; Improved activity versus cisplatin [10]: more than 9 times; Improved activity versus Imatinib mesylate [13]: > 1.5 times; Improved activity versus Imatinib mesylate [14]: more than 8 times; Improved activity versus 5-Fu [15]: more than 18 times; Improved activity versus Imatinib mesylate [15]: more than 8 times; IC50 [15]: 5.5 µg/mL; Improved activity versus 5-Fu [16]: > 55 times; Improved activity versus Imatinib mesylate [16]: > 32 times; Improved activity versus cisplatin [16]: more than 4.4 times; IC50 [16]: 1.7 µg/mL; AUC [17, 20]: 8920 ng·h/mL; half-life [17, 20]: 1.37 h |
